According to patent US9828360B2 (Array BioPharma Inc., priority 2012, dated 2017):

What was measured:
[1] = target: T1, EphA3 (Homo sapiens, UniProt P29320); experiment: KinaseProfiler off-target kinase profiling; assay type: biochemical; conditions: 10 μM, ATP near Km
T1 construct: purchased Millipore, Inc. (KinaseProfiler service)
Procedure, shortened: (§1)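 With ATP kept near each kinase's Km, a 10 μM dose of compound was tested twice. The reported number is percent of control, averaged across the pair.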

[2] = target: T2, NEK6 (Homo sapiens, UniProt Q9HC98); experiment: KinaseProfiler off-target kinase profiling; assay type: biochemical; conditions: 10 μM, ATP near Km
T2 construct: purchased Millipore, Inc. (KinaseProfiler service)
T2 sequence (Q9HC98 whole entry): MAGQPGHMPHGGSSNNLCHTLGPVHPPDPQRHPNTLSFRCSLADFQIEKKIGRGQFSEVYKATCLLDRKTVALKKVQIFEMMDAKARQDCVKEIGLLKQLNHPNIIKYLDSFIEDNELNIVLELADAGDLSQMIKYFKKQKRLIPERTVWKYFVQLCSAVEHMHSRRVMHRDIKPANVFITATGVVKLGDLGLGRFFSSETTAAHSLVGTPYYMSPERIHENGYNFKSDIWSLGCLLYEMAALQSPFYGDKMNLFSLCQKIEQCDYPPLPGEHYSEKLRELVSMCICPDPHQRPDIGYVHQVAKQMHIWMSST
Procedure, shortened: as §1

[3] = target: T3, c-RAF (Homo sapiens, UniProt P04049, Y340D/Y341D); experiment: KinaseProfiler off-target kinase profiling; assay type: biochemical; conditions: 10 μM, ATP near Km
T3 construct: purchased Millipore, Inc. (KinaseProfiler service)
Procedure, shortened: as §1

[4] = target: T4, PAK6 (Homo sapiens, UniProt Q9NQU5); experiment: KinaseProfiler off-target kinase profiling; assay type: biochemical; conditions: 10 μM, ATP near Km
T4 construct: purchased Millipore, Inc. (KinaseProfiler service)
T4 sequence (Q9NQU5 whole entry): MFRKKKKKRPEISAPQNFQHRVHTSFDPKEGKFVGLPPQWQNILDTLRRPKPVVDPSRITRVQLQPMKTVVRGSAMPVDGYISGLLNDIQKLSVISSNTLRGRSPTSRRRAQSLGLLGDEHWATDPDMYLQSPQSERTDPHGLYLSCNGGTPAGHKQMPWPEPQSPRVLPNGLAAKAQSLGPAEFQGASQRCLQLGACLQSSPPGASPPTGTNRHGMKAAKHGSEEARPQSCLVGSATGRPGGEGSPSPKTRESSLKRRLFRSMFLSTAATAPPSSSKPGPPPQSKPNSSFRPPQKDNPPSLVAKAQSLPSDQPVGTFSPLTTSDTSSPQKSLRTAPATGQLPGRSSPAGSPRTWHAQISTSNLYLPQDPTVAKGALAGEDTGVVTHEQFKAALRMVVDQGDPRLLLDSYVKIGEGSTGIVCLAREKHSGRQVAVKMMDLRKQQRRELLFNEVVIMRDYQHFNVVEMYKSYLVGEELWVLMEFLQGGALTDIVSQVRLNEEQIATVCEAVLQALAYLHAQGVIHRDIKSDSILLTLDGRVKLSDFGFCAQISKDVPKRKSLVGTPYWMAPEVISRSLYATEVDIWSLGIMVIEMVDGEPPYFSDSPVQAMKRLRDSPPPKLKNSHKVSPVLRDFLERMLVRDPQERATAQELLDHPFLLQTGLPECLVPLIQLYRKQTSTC
Procedure, shortened: as §1

[5] = target: T5, MRCKalpha (Homo sapiens, UniProt Q5VT25); experiment: KinaseProfiler off-target kinase profiling; assay type: biochemical; conditions: 10 μM, ATP near Km
T5 construct: purchased Millipore, Inc. (KinaseProfiler service)
Procedure, shortened: as §1

[6] = target: T6, eEF-2K (Homo sapiens, UniProt O00418); experiment: KinaseProfiler off-target kinase profiling; assay type: biochemical; conditions: 10 μM, ATP near Km
T6 construct: purchased Millipore, Inc. (KinaseProfiler service)
Procedure, shortened: as §1

[7] = target: T7, CK1gamma2 (Homo sapiens, UniProt P78368); experiment: KinaseProfiler off-target kinase profiling; assay type: biochemical; conditions: 10 μM, ATP near Km
T7 construct: purchased Millipore, Inc. (KinaseProfiler service)
Procedure, shortened: as §1

[8] = target: T8, VRK2 (Homo sapiens, UniProt Q86Y07); experiment: KinaseProfiler off-target kinase profiling; assay type: biochemical; conditions: 10 μM, ATP near Km
T8 construct: purchased Millipore, Inc. (KinaseProfiler service)
Procedure, shortened: as §1

[9] = target: T9, DDR2 (Homo sapiens, UniProt Q16832); experiment: KinaseProfiler off-target kinase profiling; assay type: biochemical; conditions: 10 μM, ATP near Km
T9 construct: purchased Millipore, Inc. (KinaseProfiler service)
Procedure, shortened: as §1

[10] = target: T10, ERK1 (Homo sapiens, UniProt P27361); experiment: KinaseProfiler off-target kinase profiling; assay type: biochemical; conditions: 10 μM, ATP near Km
T10 construct: purchased Millipore, Inc. (KinaseProfiler service)
T10 sequence (P27361 whole entry): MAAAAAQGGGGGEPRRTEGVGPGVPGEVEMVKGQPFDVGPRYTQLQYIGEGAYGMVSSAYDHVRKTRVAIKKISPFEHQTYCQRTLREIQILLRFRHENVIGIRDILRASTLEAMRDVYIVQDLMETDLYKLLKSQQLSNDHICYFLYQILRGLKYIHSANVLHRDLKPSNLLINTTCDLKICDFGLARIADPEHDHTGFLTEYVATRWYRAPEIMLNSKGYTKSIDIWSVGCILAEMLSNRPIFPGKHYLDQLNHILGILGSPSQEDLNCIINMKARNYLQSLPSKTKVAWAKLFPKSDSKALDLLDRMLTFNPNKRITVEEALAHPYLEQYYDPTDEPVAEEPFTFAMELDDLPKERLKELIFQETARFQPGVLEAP
Procedure, shortened: as §1

[11] = target: T11, NEK3 (Homo sapiens, UniProt P51956); experiment: KinaseProfiler off-target kinase profiling; assay type: biochemical; conditions: 10 μM, ATP near Km
T11 construct: purchased Millipore, Inc. (KinaseProfiler service)
Procedure, shortened: as §1

[12] = target: T12, HIPK2 (Homo sapiens, UniProt Q9H2X6); experiment: KinaseProfiler off-target kinase profiling; assay type: biochemical; conditions: 10 μM, ATP near Km
T12 construct: purchased Millipore, Inc. (KinaseProfiler service)
T12 sequence (Q9H2X6 whole entry): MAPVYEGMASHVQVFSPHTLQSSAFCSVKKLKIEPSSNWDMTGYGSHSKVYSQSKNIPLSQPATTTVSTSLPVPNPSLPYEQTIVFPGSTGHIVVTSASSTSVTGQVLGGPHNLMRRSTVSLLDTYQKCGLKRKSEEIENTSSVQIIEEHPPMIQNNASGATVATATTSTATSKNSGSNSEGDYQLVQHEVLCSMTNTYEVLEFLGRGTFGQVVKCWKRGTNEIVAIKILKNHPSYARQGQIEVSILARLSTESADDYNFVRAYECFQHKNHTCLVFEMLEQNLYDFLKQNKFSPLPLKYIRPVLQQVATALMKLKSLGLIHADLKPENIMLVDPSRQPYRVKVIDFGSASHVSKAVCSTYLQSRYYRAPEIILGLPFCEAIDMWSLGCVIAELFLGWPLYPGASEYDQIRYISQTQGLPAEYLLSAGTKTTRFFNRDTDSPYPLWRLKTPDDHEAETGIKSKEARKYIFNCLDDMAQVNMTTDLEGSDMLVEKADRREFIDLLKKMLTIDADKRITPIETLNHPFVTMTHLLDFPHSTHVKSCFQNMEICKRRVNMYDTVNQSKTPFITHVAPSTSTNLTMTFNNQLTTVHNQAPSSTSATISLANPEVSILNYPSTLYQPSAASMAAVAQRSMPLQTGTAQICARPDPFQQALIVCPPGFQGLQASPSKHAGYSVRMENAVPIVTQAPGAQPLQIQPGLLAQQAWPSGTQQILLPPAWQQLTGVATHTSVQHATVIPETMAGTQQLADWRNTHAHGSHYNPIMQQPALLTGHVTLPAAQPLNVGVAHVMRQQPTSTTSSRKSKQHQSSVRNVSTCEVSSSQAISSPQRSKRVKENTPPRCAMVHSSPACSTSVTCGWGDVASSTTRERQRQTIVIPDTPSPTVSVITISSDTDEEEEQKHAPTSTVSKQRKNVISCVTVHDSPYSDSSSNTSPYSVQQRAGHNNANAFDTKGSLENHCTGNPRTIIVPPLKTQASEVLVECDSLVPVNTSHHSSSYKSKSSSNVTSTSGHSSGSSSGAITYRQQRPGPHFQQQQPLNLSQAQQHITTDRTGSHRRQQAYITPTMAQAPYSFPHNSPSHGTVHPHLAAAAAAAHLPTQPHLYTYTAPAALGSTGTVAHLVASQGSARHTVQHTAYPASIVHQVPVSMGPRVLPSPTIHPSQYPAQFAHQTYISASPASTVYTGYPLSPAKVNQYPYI
Procedure, shortened: as §1

[13] = target: T13, PKD1 (Homo sapiens, UniProt Q15139); experiment: KinaseProfiler off-target kinase profiling; assay type: biochemical; conditions: 10 μM, ATP near Km
T13 construct: purchased Millipore, Inc. (KinaseProfiler service)
Procedure, shortened: as §1

[14] = target: T14, MSSK1 (Homo sapiens, UniProt Q9UPE1); experiment: KinaseProfiler off-target kinase profiling; assay type: biochemical; conditions: 10 μM, ATP near Km
T14 construct: purchased Millipore, Inc. (KinaseProfiler service)
T14 sequence (Q9UPE1 whole entry): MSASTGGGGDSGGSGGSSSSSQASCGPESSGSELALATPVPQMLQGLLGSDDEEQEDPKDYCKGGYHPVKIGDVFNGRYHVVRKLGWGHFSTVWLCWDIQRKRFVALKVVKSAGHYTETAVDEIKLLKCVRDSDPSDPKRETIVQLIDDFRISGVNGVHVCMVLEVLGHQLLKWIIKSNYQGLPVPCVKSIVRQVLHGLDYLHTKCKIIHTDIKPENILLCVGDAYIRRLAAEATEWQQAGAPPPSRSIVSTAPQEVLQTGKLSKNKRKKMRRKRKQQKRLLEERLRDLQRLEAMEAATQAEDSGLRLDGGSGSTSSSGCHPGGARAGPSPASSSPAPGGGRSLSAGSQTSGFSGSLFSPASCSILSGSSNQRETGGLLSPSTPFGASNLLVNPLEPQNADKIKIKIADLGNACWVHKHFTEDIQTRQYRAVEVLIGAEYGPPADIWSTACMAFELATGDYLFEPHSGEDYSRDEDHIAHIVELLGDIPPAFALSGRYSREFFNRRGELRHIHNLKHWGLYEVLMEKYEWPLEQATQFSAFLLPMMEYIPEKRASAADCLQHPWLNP
Procedure, shortened: as §1

[15] = target: T15, mTOR/FKBP12 (Homo sapiens, UniProt P42345); experiment: KinaseProfiler off-target kinase profiling; assay type: biochemical; conditions: 10 μM, ATP near Km
T15 construct: purchased Millipore, Inc. (KinaseProfiler service)
Procedure, shortened: as §1

[16] = target: T16, TEC Activated (Homo sapiens, UniProt P42680); experiment: KinaseProfiler off-target kinase profiling; assay type: biochemical; conditions: 10 μM, ATP near Km
T16 construct: purchased Millipore, Inc. (KinaseProfiler service)
Procedure, shortened: as §1

[17] = target: T17, Lyn (Homo sapiens, UniProt P07948); experiment: KinaseProfiler off-target kinase profiling; assay type: biochemical; conditions: 10 μM, ATP near Km
T17 construct: purchased Millipore, Inc. (KinaseProfiler service)
T17 sequence (P07948 whole entry): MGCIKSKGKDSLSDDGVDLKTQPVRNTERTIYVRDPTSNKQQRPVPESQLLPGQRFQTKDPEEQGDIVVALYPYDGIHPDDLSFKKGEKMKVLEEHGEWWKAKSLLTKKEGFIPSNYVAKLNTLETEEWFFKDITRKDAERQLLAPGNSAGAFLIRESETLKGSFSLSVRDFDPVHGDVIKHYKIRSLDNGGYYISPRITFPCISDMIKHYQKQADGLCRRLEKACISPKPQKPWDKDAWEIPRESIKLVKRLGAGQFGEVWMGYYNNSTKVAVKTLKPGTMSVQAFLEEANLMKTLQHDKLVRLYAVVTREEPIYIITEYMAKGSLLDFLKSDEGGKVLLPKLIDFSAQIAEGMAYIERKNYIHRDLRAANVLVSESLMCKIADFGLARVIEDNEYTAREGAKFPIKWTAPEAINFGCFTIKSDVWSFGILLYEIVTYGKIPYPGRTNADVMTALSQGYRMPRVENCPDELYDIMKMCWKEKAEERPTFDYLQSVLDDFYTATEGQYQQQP
Procedure, shortened: as §1

[18] = target: T18, Pim-3 (Homo sapiens, UniProt Q86V86); experiment: KinaseProfiler off-target kinase profiling; assay type: biochemical; conditions: 10 μM, ATP near Km
T18 construct: purchased Millipore, Inc. (KinaseProfiler service)
Procedure, shortened: as §1

[19] = test system: CK1_y; experiment: KinaseProfiler off-target kinase profiling; assay type: biochemical; conditions: 10 μM, ATP near Km
Procedure, shortened: as §1

[20] = target: T19, PKCbetaII (Homo sapiens, UniProt P05771); experiment: KinaseProfiler off-target kinase profiling; assay type: biochemical; conditions: 10 μM, ATP near Km
T19 construct: purchased Millipore, Inc. (KinaseProfiler service)
Procedure, shortened: as §1

[21] = target: T20, IKKalpha (Homo sapiens, UniProt O15111); experiment: KinaseProfiler off-target kinase profiling; assay type: biochemical; conditions: 10 μM, ATP near Km
T20 construct: purchased Millipore, Inc. (KinaseProfiler service)
T20 sequence (O15111 whole entry): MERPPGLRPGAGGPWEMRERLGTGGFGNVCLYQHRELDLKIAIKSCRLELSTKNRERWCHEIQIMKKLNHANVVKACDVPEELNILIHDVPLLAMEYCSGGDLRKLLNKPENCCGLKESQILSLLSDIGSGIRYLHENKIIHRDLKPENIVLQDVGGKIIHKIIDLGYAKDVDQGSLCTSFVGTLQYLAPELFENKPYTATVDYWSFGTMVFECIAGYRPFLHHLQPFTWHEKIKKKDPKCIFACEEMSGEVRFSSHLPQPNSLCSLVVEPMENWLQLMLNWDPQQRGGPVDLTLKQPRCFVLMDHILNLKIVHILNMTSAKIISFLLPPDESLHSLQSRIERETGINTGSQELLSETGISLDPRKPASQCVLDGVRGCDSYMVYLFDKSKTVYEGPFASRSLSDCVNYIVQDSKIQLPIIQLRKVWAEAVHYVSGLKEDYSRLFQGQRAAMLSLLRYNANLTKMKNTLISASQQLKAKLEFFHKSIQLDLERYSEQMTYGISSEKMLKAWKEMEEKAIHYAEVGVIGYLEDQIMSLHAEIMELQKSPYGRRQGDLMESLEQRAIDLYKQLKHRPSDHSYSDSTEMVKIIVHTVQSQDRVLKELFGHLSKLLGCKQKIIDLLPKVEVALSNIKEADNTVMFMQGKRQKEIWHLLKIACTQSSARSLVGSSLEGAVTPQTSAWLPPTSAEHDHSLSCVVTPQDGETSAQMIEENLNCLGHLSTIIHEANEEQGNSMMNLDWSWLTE
Procedure, shortened: as §1

[22] = target: T21, mTOR (Homo sapiens, UniProt P42345); experiment: KinaseProfiler off-target kinase profiling; assay type: biochemical; conditions: 10 μM, ATP near Km
T21 construct: purchased Millipore, Inc. (KinaseProfiler service)
Procedure, shortened: as §1

[23] = target: T22, DRAK1 (Homo sapiens, UniProt Q9UEE5); experiment: KinaseProfiler off-target kinase profiling; assay type: biochemical; conditions: 10 μM, ATP near Km
T22 construct: purchased Millipore, Inc. (KinaseProfiler service)
Procedure, shortened: as §1

[24] = target: T23, CAMK2g (Homo sapiens, UniProt Q13555); experiment: KinaseProfiler off-target kinase profiling; assay type: biochemical; conditions: 10 μM, ATP near Km
T23 construct: purchased Millipore, Inc. (KinaseProfiler service)
Procedure, shortened: as §1

[25] = target: TrkA (Homo sapiens, UniProt P04629); experiment: TrkA LanthaScreen Eu Kinase Binding Assay; design: 6HIS tagged cytoplasmic domain from Invitrogen, Cat. No. PV3144; purchased Invitrogen PV3144; conditions: averaged IC50 values, read-out: TrkA Enzyme IC50
Protocol: TrkA binding activity was determined in a TrkA LanthaScreen™ Eu Kinase Binding Assay. 5 nM His-tagged recombinant human TrkA (6HIS tagged cytoplasmic domain from Invitrogen, Cat. No. PV3144) was incubated with 4 nM Alexa-Fluor® Tracer 236 (Invitrogen Cat. No. PV5592), 2 nM biotinylated anti-His (Invitrogen Cat. No. PV6090), and 2 nM europium-labeled Streptavidin (Invitrogen Cat. No. PV5899), in buffer (25 mM MOPS, pH 7.5, 5 mM MgCl2, 0.005% Triton X-100). Three fold serial dilutions of compounds of the invention in DMSO were added to a final percentage of 2% DMSO. After 60-minute incubation at 22° C., the reaction was measured using the EnVision mutlimode plate reader (PerkinElmer) via TR-FRET dual wavelength detection at […]. The percent of control was calculated using a ratiometric emission factor. The IC50 values were determined by fitting a four parameter model to the percent of control data.
Table A provides averaged IC50 values for compounds of the invention when tested in the assay of Example A, where A represents an averaged IC50 value <100 nM; and B represents an averaged IC50 value from 100 to 1,000 nM.

Avg POC [1]: 112% of control | Avg POC [2]: 121.5% of control | Avg POC [3]: 106% of control | Avg POC [4]: 94% of control | Avg POC [5]: 113.5% of control | Avg POC [6]: 116.5% of control | Avg POC [7]: 94.5% of control | Avg POC [8]: 98% of control | Avg POC [9]: 101.5% of control | Avg POC [10]: 100% of control | Avg POC [11]: 129% of control | Avg POC [12]: 103% of control | Avg POC [13]: 94.5% of control | Avg POC [14]: 94% of control | Avg POC [15]: 111.5% of control | Avg POC [16]: 94% of control | Avg POC [17]: 108.5% of control | Avg POC [18]: 140.5% of control | Avg POC [19]: 106% of control | Avg POC [20]: 97.5% of control | Avg POC [21]: 112% of control | Avg POC [22]: 99% of control | Avg POC [23]: 104% of control | Avg POC [24]: 116% of control | IC50 [25]: < 100 nM
Structure (SMILES): COCCN1C[C@@H](NC(=O)Nc2sc(C(C)C)nc2-c2ccccc2)[C@H](c2ccccc2)C1 [Example 48, 1-(2-isopropyl-4-phenylthiazol-5-yl)-3-((3S,4R)-1-(2-methoxyethyl)-4-phenylpyrrolidin-3-yl)urea]
